One series relates to Beta vulg. The experiment in a line: Table 13, % damage. Format: in vivo, Beta vulgaris. From the text:
(§1) The vessels employed were plastic flowerpots having a volume of 300 cm^3; the substrate was a sandy loam containing about 1.5% humus. The seeds of the test plants (see Table 1) were sown shallow, and separated according to species. In the case of Cyperus esculentus, pregerminated tubers were planted. In the preemergence treatment, the active ingredients were then immediately applied to the surface of the soil. They were suspended or emulsified in water as the vehicle, and sprayed through atomizing nozzles. After the agents had been applied, the vessels were lightly sprinkler-irrigated to set germination and growth going, and to activate the chemical agents. The vessels were then covered with transparent plastic hoods until the plants had taken root. This cover ensured uniform germination of the test plants (to the extent that this was not impaired by the chemicals), and prevented readily volatile substances from evaporating.
(§2) For postemergence treatment, the plants were first grown to a height of from 3 to 10 cm, depending on their habit, before treated. Hoods were not placed on the pots. The experiments were set up in the greenhouse, hotter areas (25° to 40° C.) being preferred for heat-loving species, and 15° to 30° C. for plants from moderate climates. The experiments were carried out for from 4 to 6 weeks. During this period the plants were tended and their reaction to the various treatments was assessed. The following tables contain the substances investigated, the application rates in kg/ha of active ingredient, and the test plant species. Assessments were made on a 0 to 100 scale, 0 denoting no damage or normal emergence, and 100 denoting no emergence or complete destruction of at least the visible plant parts.

The subject of series [1] is Alopec. myosur. The series can be described thus: Table 13, % damage. Format: in vivo.
Source text: as §1, §2

Another series deals with Echin c.g. The experiment in a line: Table 13, % damage. Format: in vivo.
Source text: as §1, §2

Another series concerns Setar. spp. The experiment in a line: Table 13, % damage. The class given is in vivo.
Source text: as §1, §2

Another series concerns Amar. retro. The experiment in a line: preemergence treatment in the greenhouse, % damage. Format: in vivo. The gist of the method: (§3)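 Seeds sown in sandy loam (~1.5% humus); pre-emergence: agents sprayed in water onto soil surface immediately after sowing, then irrigated and hooded until rooting. Post-emergence: plants treated at 3–10 cm height, unhooded. Greenhouse at 25–40 °C or 15–30 °C by species; rates in kg/ha a.i.; damage scored 0–100 after 4–6 weeks.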

The subject of a further series is Bromus spp. The series can be described thus: preemergence treatment in the greenhouse, % damage. Format: in vivo. Particulars: 0.25 kg/ha. The gist of the method:
as §3

The next series deals with Chrys. seget. The experiment in a line: preemergence treatment in the greenhouse, % damage. The following applies: 0.25 kg/ha. Format: in vivo. The gist of the method: as §3
The subject of a further series is Euph. gen. The series can be described thus: preemergence treatment in the greenhouse, % damage. Format: in vivo. The following applies: 0.25 kg/ha. The gist of the method:
as §3

For the next series, the system named is Poa annua. The series can be described thus: preemergence treatment in the greenhouse, % damage. The following applies: 0.25 kg/ha. The class given is in vivo. The gist of the method:
as §3

The subject of the next series is Solanum nigrum. The series can be described thus: preemergence treatment in the greenhouse, % damage. Format: in vivo. The gist of the method:
as §3

The subject of a further series is Sorgh. halep. The experiment in a line: preemergence treatment in the greenhouse, % damage. The class given is in vivo. The gist of the method:
as §3

Series [2] relates to Alopec. myosur. The experiment in a line: preemergence application in the open, % damage. Format: in vivo. Here is the method: (§4) The experiments were carried out on small plots. The soil was a sandy loam having a pH of from 5 to 6 and containing from 1 to 1.5% humus. The treatment was preemergence, the active ingredients being applied immediately or at the latest 3 days after sowing. The crop plants were sown in rows. The weed flora was made up of the most widely varying species and was natural; the weed flora depended on the time of the year and in part on the crop (e.g., spring-germinating, summer-germinating). The substances were emulsified or suspended in water as the vehicle, and applied by means of a motor-driven plot spray mounted on a hitch. When no rain fell, the plots were watered to ensure germination and growth of the crop plants and weeds. All the experiments were run for several weeks. Over this period, assessments were made at certain intervals on the 0 to 100 scale.

The test system of a further series is Anth./Matric. The experiment in a line: preemergence application in the open, % damage. Format: in vivo. Here is the method:
as §4

The test system of another series is Brassica napus. The experiment in a line: preemergence application in the open, % damage. Format: in vivo. Here is the method: as §4
The test system of a further series is Lamium spp. The series can be described thus: preemergence application in the open, % damage. The class given is in vivo. How it is done: as §4
The test system of a further series is Stellaria media. The series can be described thus: preemergence application in the open, % damage. Format: in vivo. Here is the method: as §4
The next series deals with Cyp. diff. The experiment in a line: preemergence treatment in the greenhouse, % damage. Format: in vivo. The essentials:
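Sow shallow in sandy loam, spray actives (water vehicle) on soil at once for preemergence, irrigate, hood until rooting; or grow to 3–10 cm and spray unhooded for postemergence. Keep 4–6 weeks at 15–40 °C by species, then score damage 0–100.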

For the next series, the system named is Cenchr. ech. The experiment in a line: preemergence treatment in the greenhouse, % damage. Format: in vivo. The gist of the method:
as §3

The test system of a further series is Echin. c.g. The series can be described thus: preemergence treatment in the greenhouse, % damage. The class given is in vivo. The gist of the method: as §3
Another series concerns Ipom. spp. The series can be described thus: preemergence treatment in the greenhouse, % damage. The class given is in vivo. The gist of the method: as §3
The subject of the next series is Lept. spp. The experiment in a line: preemergence treatment in the greenhouse, % damage. Format: in vivo. The gist of the method: as §3
Another series deals with Panic. virg. The experiment in a line: preemergence treatment in the greenhouse, % damage. Format: in vivo. The gist of the method: as §3
The next series has as its system Sida spin. The experiment in a line: preemergence treatment in the greenhouse, % damage. Format: in vivo. The essentials:
as §3

A further series concerns Glyc. max. The series can be described thus: preemergence treatment in the greenhouse, % damage. Format: in vivo, Glycine max. The gist of the method: as §3
In the next series the test system is Gossyp. hirs. The experiment in a line: preemergence treatment in the greenhouse, % damage. Format: in vivo, Gosspyium hirsutum. The gist of the method:
as §3

Take `CCc1cccc(C)c1N(Cn1cnc(Cl)c1Cl)C(=O)CCl`: the “% damage” value stood at 0% with Beta vulg. (appl. rate 0.5); 0% in the series on Beta vulg. (appl. rate 1.0); 100% with Alopec. myosur. [1] (appl. rate 0.5); 100% in the series on Alopec. myosur. [1] (appl. rate 1.0); 100% in the series on Echin c.g. (appl. rate 0.5); 100% in the series with Echin c.g. (appl. rate 1.0). Also, the “% damage” value with Setar. spp. (appl. rate 0.5) and in the series with Setar. spp. (appl. rate 1.0) was 100% throughout.
Turning to `CCc1cccc(C)c1N(Cn1cccn1)C(=O)CCl` [Compound 7], the “% damage” value in the series with Amar. retro. (0.25 kg/ha) was 88%; with Bromus spp., 95%; with Chrys. seget. it was 100%; with Euph. gen., 80%; in the series on Poa annua, 100%; in the series on Solanum nigrum (0.25 kg/ha), 100%. Moreover, the “% damage” value with Sorgh. halep. (0.25 kg/ha) came to 75%; with Alopec. myosur. [2] (0.5 kg/ha), 70%; with Alopec. myosur. [2] (1.0 kg/ha), 85%; with Anth./Matric. (0.5 kg/ha), 100%; in the series with Brassica napus (0.5 kg/ha), 5%; in the series on Brassica napus (1.0 kg/ha), 10%. Moreover, the “% damage” value is 95% with Lamium spp. (0.5 kg/ha), 100% in the series on Lamium spp. (1.0 kg/ha), 80% in the series with Stellaria media (0.5 kg/ha) and 95% with Stellaria media (1.0 kg/ha).
Consider `CCc1cccc(C)c1N(Cn1nc(C)cc1C)C(=O)CCl` [Compound 40], for which the “% damage” value worked out at 90% with Amar. retro. (0.125 kg/ha); 100% in the series with Amar. retro. (0.25 kg/ha); 80% with Bromus spp.; 30% in the series on Chrys. seget.; 100% with Cyp. diff. (0.125 kg/ha); 100% with Cyp. diff. (0.25 kg/ha). In addition, the “% damage” value with Euph. gen. was 0%; with Poa annua, 100%; in the series on Solanum nigrum (one value printed for two rates (0.125 0.25 kg/ha)), 95%; with Sorgh. halep. (0.125 kg/ha) it was 60%; in the series on Sorgh. halep. (0.25 kg/ha), 60%; with Alopec. myosur. [2] (1.0 kg/ha), 50%. In addition, the “% damage” value stood at 90% with Anth./Matric. (1.0 kg/ha), 20% with Brassica napus (1.0 kg/ha), 60% in the series on Lamium spp. (1.0 kg/ha) and 68% in the series on Stellaria media (1.0 kg/ha).
Consider `CCc1cccc(CC)c1N(Cn1nc(C)cc1C)C(=O)CCl` [Compound 41], for which the “% damage” value in the series with Amar. retro. (0.25 kg/ha) was determined as 73%; in the series on Amar. retro. (0.5 kg/ha), 97%; with Amar. retro. (1.0 kg/ha) it was 100%; in the series on Amar. retro. (2.0 kg/ha) it was 100%; with Cenchr. ech. (0.25 kg/ha) it was 90%; with Cenchr. ech. (0.5 kg/ha), 92%. Moreover, the “% damage” value with Cenchr. ech. (1.0 kg/ha) is on record as 100%; in the series on Cenchr. ech. (2.0 kg/ha) it was 100%; with Cyp. diff. (0.25 kg/ha) it was 100%; with Cyp. diff. (0.5 kg/ha), 100%; in the series with Cyp. diff. (1.0 kg/ha), 100%; in the series on Echin. c.g. (0.25 kg/ha), 95%. Also, the “% damage” value turned out to be 100% in the series with Echin. c.g. (0.5 kg/ha); 100% in the series with Echin. c.g. (1.0 kg/ha); 100% in the series on Echin. c.g. (2.0 kg/ha); 50% in the series with Ipom. spp. (1.0 kg/ha); 90% in the series with Ipom. spp. (2.0 kg/ha); 95% in the series on Lept. spp. (0.25 kg/ha). Moreover, the “% damage” value was 95% with Lept. spp. (0.5 kg/ha); 95% with Lept. spp. (1.0 kg/ha); 95% with Lept. spp. (2.0 kg/ha); 85% with Panic. virg. (0.25 kg/ha); 85% in the series with Panic. virg. (0.5 kg/ha); 100% in the series with Panic. virg. (1.0 kg/ha). For the same molecule, the “% damage” value was determined as 100% in the series on Panic. virg. (2.0 kg/ha); 45% in the series on Sida spin. (1.0 kg/ha); 90% in the series with Sida spin. (2.0 kg/ha); 70% in the series with Solanum nigrum (0.25 kg/ha); 90% in the series with Solanum nigrum (0.5 kg/ha); 98% with Solanum nigrum (1.0 kg/ha). Also, the “% damage” value turned out to be 100% with Solanum nigrum (2.0 kg/ha); 0% in the series with Glyc. max (0.25 kg/ha); 0% with Glyc. max (0.5 kg/ha); 0% with Glyc. max (1.0 kg/ha); 0% in the series with Glyc. max (2.0 kg/ha); 0% with Gossyp. hirs. (0.25 kg/ha). For the same molecule, the “% damage” value with Gossyp. hirs. (0.5 kg/ha) worked out at 8%; in the series with Gossyp. hirs. (1.0 kg/ha), 8%; with Gossyp. hirs. (2.0 kg/ha) it was 10%.

The values are drawn from patent US4593104A, “2-halo-N-(azole-1-yl-methyl)-substituted acetanilides” (BASF Aktiengesellschaft, priority 1976, dated 1986).
